Here are results for ten molecules from patent US9156811B2 (priority 2008, dated 2015).

One may read the IC50 as the concentration at which inhibition is half-maximal. What is called Kp is the ratio of the level in a tissue or fluid to that in plasma or blood.

For one data set, the target named is human NMT-1 (Homo sapiens (Human), UniProt P30419). Briefly: NMT enzyme inhibition scintillation proximity assay, human NMT-1. The data set is classed as biochemical. As to conditions: HuNMT-1. On the technique in general: Scintillation proximity formats need no separation of bound from free tracer.
Chain of human NMT-1 (P30419 whole entry): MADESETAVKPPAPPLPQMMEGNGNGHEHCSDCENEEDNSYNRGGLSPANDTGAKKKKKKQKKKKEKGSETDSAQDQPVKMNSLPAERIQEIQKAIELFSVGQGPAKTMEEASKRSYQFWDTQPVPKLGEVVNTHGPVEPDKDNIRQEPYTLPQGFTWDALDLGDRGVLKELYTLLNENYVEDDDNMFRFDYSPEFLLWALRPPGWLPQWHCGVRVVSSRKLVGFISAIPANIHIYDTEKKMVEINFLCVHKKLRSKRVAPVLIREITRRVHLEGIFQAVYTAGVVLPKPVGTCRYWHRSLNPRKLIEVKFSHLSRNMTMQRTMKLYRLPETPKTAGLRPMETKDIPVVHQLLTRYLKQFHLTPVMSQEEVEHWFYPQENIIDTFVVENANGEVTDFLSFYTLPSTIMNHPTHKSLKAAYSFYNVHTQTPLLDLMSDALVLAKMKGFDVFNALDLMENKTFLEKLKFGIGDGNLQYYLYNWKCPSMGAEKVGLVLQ
The target in data set [1] is T. brucei N-myristoyl transferase (Trypanosoma brucei brucei (strain 927/4 GUTat10.1), UniProt Q388H8). Description: biochemical. The data set is classed as biochemical. Particulars: read-out: IC50 (μM) NMT Enzyme.
Chain of T. brucei N-myristoyl transferase (Q388H8 1-446): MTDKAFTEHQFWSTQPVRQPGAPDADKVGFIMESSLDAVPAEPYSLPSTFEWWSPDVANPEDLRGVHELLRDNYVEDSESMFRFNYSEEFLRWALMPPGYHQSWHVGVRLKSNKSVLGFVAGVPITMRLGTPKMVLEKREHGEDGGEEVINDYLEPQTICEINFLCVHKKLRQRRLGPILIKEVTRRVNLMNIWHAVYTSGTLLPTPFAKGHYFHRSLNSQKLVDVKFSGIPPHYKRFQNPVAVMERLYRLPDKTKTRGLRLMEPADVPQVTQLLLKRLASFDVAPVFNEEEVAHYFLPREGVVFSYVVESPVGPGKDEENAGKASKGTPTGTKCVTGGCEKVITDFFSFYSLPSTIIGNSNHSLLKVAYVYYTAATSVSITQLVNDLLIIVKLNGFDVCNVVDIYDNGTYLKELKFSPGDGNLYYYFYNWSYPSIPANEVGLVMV
Data set [2] addresses A. fumigatus N-myristoyl transferase (Aspergillus fumigatus (strain ATCC MYA-4609 / CBS 101355 / FGSC A1100 / Af293) (Neosartorya fumigata), UniProt Q9UVX3). Briefly: biochemical. Type of data set: biochemical. As to conditions: read-out: IC50 (μM) NMT Enzyme (AfNMT).
Data set [3] has as its system Trypanosome (T. brucei brucei). Description: In-vitro antitrypanosomal efficacy assay (cell growth, resazurin). Type of data set: cell-based.
Description: To column 12, 200 μl media was added to provide a no cells control. Plates were then incubated at 37° C. in an atmosphere of 5% CO2 for 69 hours, before the addition of 20 μl of 500 μM rezasurin solution, and a further incubation period of 4 hours. […] Concentration effect curves were fitted using non-linear regression using XLFit 4.2 and EC50 values determined.
The nature of data set [4]: CNS penetration: drug concentration in blood and brain after i.v. dosing. As to conditions: iv, female NMRI mouse, t = 5 min; for Kp at 5 min: brain / whole blood; for concentration at 5 min: average of three animals. Type of data set: in vivo.
Description: Assessment of the CNS penetration of NMT inhibitors was determined in the female NMRI mouse following i.v. dosing (n=3 per dose group, concentration measured after t=5 min).
For another data set, the system named is HCT116. Description: In-vitro antiproliferative assay, HCT116. Type of data set: cell-based, human. Particulars: Homo sapiens, HCT-116; Table 4; 72 h, Alamar blue; read-out: IC50 HCT116. On the technique in general: The colour change of resazurin is a common sign of viable cells or microbes.
The test system of a further data set is MDA-MB-231. Description: In-vitro antiproliferative assay, MDA-MB-231. Particulars: Homo sapiens, MDA-MB-231; Table 4; 72 h, Alamar blue; read-out: IC50 MDA-MB-231. Type of data set: cell-based, human.
Where [5] appears, read: value printed without enzyme tag in the NMT Enzyme column (taken as T. brucei NMT).
Setting [6] is: value with no enzyme tag in the cell, taken as T. brucei NMT.
Setting [7] is: brain, single i.v. dose 2.0 mg/kg, read-out: Conc (ng/ml in brain).
[8] abbreviates: whole blood, single i.v. dose 2.0 mg/kg, read-out: Conc (ng/ml in blood).
Where [9] appears, read: T. brucei brucei, blood stream form, variant 221.

Read-outs that look alike come from different tables or passages of the source. A value given as a limit tells only on which side of the number the result lay.

Regarding `COc1cc2c(cc1OC)CN(c1ccc([S+](=O)([O-])Nc3c(C)nn(C)c3C)cn1)CC2` [DDD73476], the half-inhibitory concentration (IC50) turned out to be 2.3 µM at human NMT-1, 0.32 µM in data set [1] (setting [5]) and 4.8 µM in data set [2] (AfNMT). Also, the “ED50 (μM) T. brucei” value in data set [3] (T. brucei cell growth) turned out to be 1.8 µM.

`Cc1nn(C)c(C)c1N(C)[S+](=O)([O-])c1c(Cl)cc(Br)cc1Cl` [DDD73490, 4-Bromo-2,6-dichloro-N-methyl-N-(1,3,5-trimethyl-1H-pyrazol-4-yl)-benzenesulfonamide]: the IC50 came out at 4 µM at human NMT-1, 0.36 µM in data set [1] (setting [5]) and 3.9 µM in data set [2] (AfNMT). Moreover, the “ED50 (μM) T. brucei” value in data set [3] (T. brucei cell growth) turned out to be 2.8 µM. The Kp at 5 min in data set [4] (single i.v. dose 0.33 mg/kg) is 6. Besides, the concentration at 5 min in data set [4] (brain, single i.v. dose 0.33 mg/kg, read-out: Conc (ng/ml in brain)) was determined as 314 ng/mL; in data set [4] (whole blood, single i.v. dose 0.33 mg/kg, read-out: Conc (ng/ml in blood)) it was 52 ng/mL.

As for `Cc1nn(C)c(C)c1NS(=O)(=O)c1ccc(N2CCc3cccc(N)c3C2)nc1` [DDD73498, 6-(8-Amino-3,4-dihydro-1H-isoquinolin-2-yl)-pyridine-3-sulfonic acid (1,3,5-trimethyl-1H-pyrazol-4-yl)-amide], the values for the IC50 (against human NMT-1; in data set [1] (setting [5]); in data set [2] (AfNMT)) were 4.3 µM, 0.32 µM and 14.7 µM, respectively. In addition, the “ED50 (μM) T. brucei” value in data set [3] (T. brucei cell growth) was 2.6 µM.

As for `Cc1nn(C)c(C)c1N[S+](=O)([O-])c1ccc(-c2cccc(Cn3ccnc3)c2)cc1` [DDD88006, 3′-imidazol-1-ylmethyl-biphenyl-4-sulfonic acid (1,3,6-trimethyl-1H-pyrazol-4-yl)-amide], the IC50 in data set [1] (setting [6]) is 0.35 µM; in data set [2] it was 4.2 µM. Besides, the “ED50 (μM) T. brucei” value in data set [3] (T. brucei cell growth) was found to be 3.9 µM.

As to `CCN(CC)Cc1cccc(-c2ccc([S+](=O)([O-])N(C)c3c(C)nn(C)c3C)cc2)c1` [DDD88195, 3′-Diethylaminomethyl-biphenyl-4-sulfonic acid methyl-(1,3,5-trimethyl-1H-pyrazol-4-yl)-amide], in data set [1] (setting [6]), the 50% inhibitory concentration (IC50) worked out at 0.05 µM. In data set [3] (T. brucei cell growth), the “ED50 (μM) T. brucei” value worked out at 0.51 µM. The same molecule had a Kp at 5 min in data set [4] (single i.v. dose 1.0 mg/kg) of 0.8. Moreover, the concentration at 5 min turned out to be 93 ng/mL in data set [4] (brain, single i.v. dose 1.0 mg/kg, read-out: Conc (ng/ml in brain)) and 116 ng/mL in data set [4] (whole blood, single i.v. dose 1.0 mg/kg, read-out: Conc (ng/ml in blood)).

On to `CCN(CC)Cc1cccc(-c2ccc([S+](=O)([O-])Nc3c(CC(C)C)nn(C)c3C)cc2)c1` [DDD88638], for which, in data set [1] (setting [6]), the IC50 was found to be 0.009 µM. Also, the “ED50 (μM) T. brucei” value in data set [3] (T. brucei cell growth) came to 0.084 µM. This molecule also came in with a Kp at 5 min in data set [4] (single i.v. dose 2.0 mg/kg) of 1.35. For the same molecule, the results for the concentration at 5 min in data set [4] (setting [7]) and in data set [4] (setting [8]) were 378 ng/mL and 281 ng/mL, respectively.

On to `Cc1nn(C)c(C)c1N(C)[S+](=O)([O-])c1ccc(CCCCCCn2ccnc2)cc1` [DDD99754], for which the results for the IC50 (at human NMT-1; in data set [1] (setting [6]); in data set [2]) were 2.1 µM, 0.105 µM and over 1 µM, respectively. For the same molecule, the “ED50 (μM) T. brucei” value in data set [3] (T. brucei cell growth) is over 1 µM.

In the case of `Cc1nn(C)c(C)c1N(C(F)F)[S+](=O)([O-])c1c(Cl)cc(CCCC2CCN(C)CC2)cc1Cl` [DDD100097, 2,6-dichloro-N-(difluoromethyl)-4-(3-(1-methylpiperidin-4-yl)propyl)-N-(1,3,5-trimethyl-1H-pyrazol-4-yl)benzenesulfonamide], the “ED50 (μM) T. brucei” value in data set [3] (setting [9]) came to 0.001 µM. This molecule displayed a Kp at 5 min in data set [4] (single i.v. dose 2.0 mg/kg) of 1.5. For the same molecule, the concentration at 5 min in data set [4] (setting [7]) amounted to 335 ng/mL; in data set [4] (setting [8]), 224 ng/mL.

With `Cc1nn(C)c(C)c1N(CC(F)(F)F)[S+](=O)([O-])c1c(Cl)cc(CCCC2CCN(C)CC2)cc1Cl` [DDD100153, 2,6-dichloro-4-(3-(1-methylpiperidin-4-yl)propyl)-N-(2,2,2-trifluoroethyl)-N-(1,3,5-trimethyl-1H-pyrazol-4-yl)benzenesulfonamide], the “ED50 (μM) T. brucei” value in data set [3] (setting [9]) was 0.023 µM. In data set [4] (single i.v. dose 2.0 mg/kg), this molecule had a Kp at 5 min of 0.64. The results for the concentration at 5 min in data set [4] (setting [7]) and in data set [4] (setting [8]) were 171 ng/mL and 269 ng/mL, respectively.

Turning to `Cc1nn(C)c(C)c1N(C(F)F)[S+](=O)([O-])c1c(Cl)cc(CCCOC2CCN(C)CC2)cc1Cl` [DDD100169], the figures for the IC50 with HCT116 and in the data set on MDA-MB-231 were 419 nM and 249 nM, respectively.
